From US9321788B2, “Tricyclic antibiotics” (BASILEA PHARMACEUTICA AG, priority 2011, dated 2016)

system: Escherichia coli ATCC25922; test: Antimicrobial activity assay (MIC, broth microdilution); format: cell-based
Protocol: (§1) Antimicrobial Activity Assay
The antibacterial activity of compounds is determined by the minimal inhibitory concentration (MIC) method. MICs for all bacteria except pneumococci and Haemophilus influenzae are obtained by broth microdilution with cation-adjusted Mueller-Hinton broth (CAMHB; BBL), according to CLSI guidelines (National Committee for Clinical Laboratory Standards. 2003. Methods for dilution antimicrobial susceptibility tests for bacteria that grow aerobically, 5th ed.; a approved standard M7-A6. National Committee for Clinical Laboratory Standards, Wayne, Pa.), with the following modifications: (i) for pneumococci CAMHB is supplemented with 5% (^v/v) horse serum; (ii) for Haemophilus influenzae CAMHB is supplemented with 5% (^v/v) Fildes enrichment (BBL) (Pankuch, G. A., Hoellman, D. B., Lin, G., Bajaksouzian, S., Jacobs, M. R., and Appelbaum, P. C. 1998. Activity of HMR 3647 compared to those of five agents against Haemophilus influenzae and Moraxella catarrhalis by MIC determination and time-kill assay. Antimicrob. Agents Chemother. 42:3032-3034). Microtiter plates are incubated at 35° C. in ambient air for 20 to 24 h, then inspected using an illuminated microtiter plate reader fitted with a magnifying mirror (MIC 2000; Cooke Laboratory Products, Alexandria, Va.). […]

MIC, ≤ 8 µg/mL:
COc1ccc2ncc3c(c2n1)CC(CN1CCC(NC(=O)c2ccc4c(c2)NC(=O)CS4)CC1)CO3 (stereo not drawn) [Example 1, 3-oxo-3,4-dihydro-2H-benzo[1,4]thiazine-6-carboxylic acid [1-(6-methoxy-3,4-dihydro-2H-1-oxa-5,9-diaza-phenanthren-3-ylmethyl)-piperidin-4-yl]-amide]

system: Streptococcus pneumoniae ATCC49619; test: Antimicrobial activity assay (MIC, broth microdilution, CAMHB with 5% horse serum); format: cell-based
Protocol: as §1
The antibacterial activity of compounds is determined by the minimal inhibitory concentration (MIC) method. MICs for all bacteria except pneumococci and Haemophilus influenzae are obtained by broth microdilution with cation-adjusted Mueller-Hinton broth (CAMHB; BBL), according to CLSI guidelines (National Committee for Clinical Laboratory Standards. 2003. Methods for dilution antimicrobial susceptibility tests for bacteria that grow aerobically, 5th ed.; a approved standard M7-A6. National Committee for Clinical Laboratory Standards, Wayne, Pa.), with the following modifications: (i) for pneumococci CAMHB is supplemented with 5% (^v/v) horse serum; (ii) for Haemophilus influenzae CAMHB is supplemented with 5% (^v/v) Fildes enrichment (BBL) (Pankuch, G. A., Hoellman, D. B., Lin, G., Bajaksouzian, S., Jacobs, M. R., and Appelbaum, P. C. 1998. Activity of HMR 3647 compared to those of five agents against Haemophilus influenzae and Moraxella catarrhalis by MIC determination and time-kill assay. Antimicrob. Agents Chemother. 42:3032-3034). Microtiter plates are incubated at 35° C. in ambient air for 20 to 24 h, then inspected using an illuminated microtiter plate reader fitted with a magnifying mirror (MIC 2000; Cooke Laboratory Products, Alexandria, Va.). Compounds of the present invention are tested against several bacteria strains comprising some Acinetobacter baumannii, Enterococcus faecalis, Enterococcus faecium, Escherichia coli, Haemophilus influenzae, Klebsiella pneumoniae, Pseudomonas aeruginosa, Staphylococcus aureus, Staphylococcus epidermidis, Streptococcus pyogenes; Enterobacter cloacae and Streptococcus pneumoniae.

MIC, ≤ 8 µg/mL:
COc1ccc2ncc3c(c2c1F)CC(CN1CCC(NC(=O)c2ccc4c(c2)NC(=O)CS4)CC1)CO3 (stereo not drawn) [Example 45, 3-oxo-3,4-dihydro-2H-benzo[1,4]thiazine-6-carboxylic acid [1-(5-fluoro-6-methoxy-3,4-dihydro-2H-1-oxa-9-aza-phenanthren-3-ylmethyl)-piperidin-4-yl]-amide]
COc1ccc2ncc3c(c2c1)CC(CN1CCC(NCc2ccc4c(c2)NC(=O)CS4)CC1)CO3 (stereo not drawn) [Example 34, 6-{[1-(6-methoxy-3,4-dihydro-2H-1-oxa-9-aza-phenanthren-3-ylmethyl)-piperidin-4-ylamino]-methyl}-4H-benzo[1,4]thiazin-3-one]
COc1ccc2ncc3c(c2n1)CC(CN1CCC(NC(=O)c2ccc4c(c2)NC(=O)CS4)CC1)O3 (stereo not drawn) [Example 54, 3-oxo-3,4-dihydro-2H-benzo[1,4]thiazine-6-carboxylic acid [1-(8-methoxy-1,2-dihydro-3-oxa-5,9-diaza-cyclopenta[a]naphthalen-2-ylmethyl)-piperidin-4-yl]-amide]
COc1ccc2ncc3c(c2c1)CC(CN1CC(NC(=O)c2ccc4c(c2)NC(=O)CS4)C1)CS3 (stereo not drawn) [Example 49, 3-oxo-3,4-dihydro-2H-benzo[1,4]thiazine-6-carboxylic acid [1-(6-methoxy-3,4-dihydro-2H-1-thia-9-aza-phenanthren-3-ylmethyl)-azetidin-3-yl]-amide]
COc1ccc2ncc3c(c2c1)CC(Cn1cc(NC(=O)c2ccc4c(c2)NC(=O)CS4)cn1)CO3 (stereo not drawn) [Example 31, 3-oxo-3,4-dihydro-2H-benzo[1,4]thiazine-6-carboxylic acid [1-(6-methoxy-3,4-dihydro-2H-1-oxa-9-aza-phenanthren-3-ylmethyl)-1H-pyrazol-4-yl]-amide]
COc1ccc2ncc3c(c2c1)CC(CN1CC(NC(=O)c2ccc4c(c2)NC(=O)CS4)CC1CO)CS3 (stereo not drawn) [Example 51, 3-oxo-3,4-dihydro-2H-benzo[1,4]thiazine-6-carboxylic acid [5-hydroxymethyl-1-(6-methoxy-3,4-dihydro-2H-1-thia-9-aza-phenanthren-3-ylmethyl)-pyrrolidin-3-yl]-amide]
COc1ccc2ncc3c(c2c1)OC(CN1CC(NC(=O)c2ccc4c(c2)NC(=O)CS4)C1)C3 (stereo not drawn) [Example 39, 3-oxo-3,4-dihydro-2H-benzo[1,4]thiazine-6-carboxylic acid [1-(8-methoxy-2,3-dihydro-furo[3,2-c]quinolin-2-ylmethyl)-azetidin-3-yl]-amide]
COc1ccc2ncc3c(c2c1)CC(C(O)[C@H]1CC[C@H](NC(=O)c2ccc4c(c2)NC(=O)CS4)CC1)O3 (relative stereo) [Example 59, 3-oxo-3,4-dihydro-2H-benzo[1,4]thiazine-6-carboxylic acid {trans-4-[hydroxy-(8-methoxy-1,2-dihydro-furo[2,3-c]quinolin-2-yl)-methyl]-cyclohexyl}-amide]
COc1ccc2ncc3c(c2c1)CC(CN1CCC(NC(=O)c2ccc4c(c2)NC(=O)CS4)CC1)O3 (stereo not drawn) [Example 55, 3-oxo-3,4-dihydro-2H-benzo[1,4]thiazine-6-carboxylic acid [1-(8-methoxy-1,2-dihydro-furo[2,3-c]quinolin-2-ylmethyl)-piperidin-4-yl]-amide]
COc1ccc2ncc3c(c2n1)CC(CN1CCC(NC(=O)c2ccc4c(c2)NC(=O)CS4)CC1)CO3 (stereo not drawn) [Example 1, 3-oxo-3,4-dihydro-2H-benzo[1,4]thiazine-6-carboxylic acid [1-(6-methoxy-3,4-dihydro-2H-1-oxa-5,9-diaza-phenanthren-3-ylmethyl)-piperidin-4-yl]-amide]
COc1ccc2ncc3c(c2c1)CC(C[C@H]1CC[C@H](NC(=O)c2ccc4c(c2)NC(=O)CO4)CC1)CO3 (relative stereo) [Example 36, 3-oxo-3,4-dihydro-2H-benzo[1,4]oxazine-6-carboxylic acid [trans-4-(6-methoxy-3,4-dihydro-2H-1-oxa-9-aza-phenanthren-3-ylmethyl)-cyclohexyl]-amide]
